Assay results reported in US20090042783A1, “APO E ANALOGS AND METHODS FOR THEIR USE” (priority 2004, published 2009).
Like-named read-outs stand apart in the source and are kept apart here.

Experiments:
[1] = system: peritoneal macrophages; experiment: Peritoneal macrophage production of NO, TNFα and IL-6 induced by MOG or LPS/IFN-γ; format: cell-based, mouse
Description: For this purpose, three mice with clinical scores of 0 and three with clinical scores of 4 at 30 dpi (day post-immunization) were used for preparation of peritoneal macrophage cultures. Macrophages were collected after peritoneal lavage with 3 ml heparin (10 U/ml)-containing PBS and then seeded to 96-well microplates at a density of 1×10^5 cells/well in Dulbecco's MEM containing 10% fetal bovine serum, 2 mM L-glutamine serum, 1% HEPES and 100 U/ml penicillin and 100 μg/ml streptomycin, 37° C. in a humidified incubator with 5% CO2. 24 h later, the serum-containing medium was removed and cells were washed once with serum-free medium. To examine the differentiated response of macrophage to immune stimulators, macrophages obtained from mice with clinical scores of 0 or 4 were exposed to serial concentrations of IFN-γ/LPS or MOG35-55 peptide. […] Media were collected at 45 h or 72 h, and analyzed by ELISA for […] and IL-6 or for nitric oxide (NO) as detailed below.
As the stable end product of nitric oxide release, nitrite levels in conditioned media were determined by injecting 50 μl media sample into a Sievers 280 NOA analyzer (Boulder, Colo., USA). Total protein (μg/well) was measured using the BCA method (Pierce, Rockford, Ill., USA) according to manufacturer's instructions with BSA as standard. BCA values were measured using a Molecular Devices Thermomax Microplate Reader (Menlo Park, Calif., USA) at OD562. Nitric oxide levels ere expressed as μM NO2—/mg protein.
For cytokine assays, supernatants were collected 45 h after […]/LPS or MOG treatments and quantitative ELISAs using selected pairs of monoclonal antibodies (as recommended by the manufacturer Biosource) were performed to quantify the cytokines, TNF-α and IL-6. For TNF-α ELISA, 96-well ELISA plates were pre-coated with rabbit anti-mouse polyclonal to TNF-α as capture antibodies for 18 h at 2-8° C. and then blocked for 2 h at room temperature. The wells were incubated with samples or mouse TNF-α standards. Following incubation for 2 h at room temperature, the wells were washed, after which hamster anti-mouse TNF-α biotinylated secondary antibody and horseradish peroxidase conjugate were added. Tetramethylbenzidine (TMB) solution was then added, and peroxidase-catalyzed color change was stopped by acidification with 2 NH2SO4. The plates were scanned at wavelength 450 nm and the absorbance were measured. The results are expressed as the mean concentration (pg/ml) ±SEM.
For IL-6 ELISA, rat anti-mouse monoclonal to IL-6 was used as capture antibody, and biotinylated rat anti-mouse monoclonal to IL-6 as detection antibody. The rest of procedure is identical to that of TNF-α ELISA.

[2] = system: BV2 murine microglial cells
Description: For Applicants preliminary work, the two most common PTDs, TAT and penetratin, were used.
Cell Culture: BV-2, a well-characterized murine microglial cell line (Bochinni, 1992), is cultured in high glucose content DMEM supplemented with 1% penicillin/streptomycin, 10% fetal calf serum, 1% nonessential amino acids, and 1% sodium pyruvate. Cells are grown to confluency; trypsinized; spun down; resuspended in serum-free OptiMEM containing 1% N2 supplement, 1% penicillin/streptomycin, 1% nonessential amino acids, and 1% sodium pyruvate; and plated at a concentration of 20,000 cells/well to remove any nonadherent cells and serum.
Supernatant is collected 24 and/or 48 h after LPS stimulation and assayed for nitrite.
Quantification of Nitric Oxide (NO): Accumulation of nitrite (stable end product of NO production) in the medium is measured by colometric Griess reagent system (Promega); the absorbance is determined at 540 nm.
Cell Viability Assay: Cell viability is measured using a nonradioactive cell viability assay (cell titer 96 AQ, Promega). The assay measures the bioreduction of MTS (3-(4,5-dimethylthiazole-2-)-5-(3-carboxymethoxyphenyl)-2-(4-sulfophenyl)-2H-tetrazolium by viable cells into formazan. The absorbance of the calorimetric assay is measured at λ 490 nm. Viability is assessed and used to normalize the nitrite data.

[3] = system: RAW 264.7 macrophages
[4] = system: mice with traumatic brain injury; experiment: Closed head injury model of traumatic brain injury (rotorod, Morris Water Maze)
Description: C57Bl/6J male mice (The Jackson Laboratory, ME), 12-16 weeks of age and weighing 24-32 g, are used for all experiments. Anesthesia is first induced with isoflurane in 30% O2/balance N2. The trachea is intubated and the lungs mechanically ventilated with 1.6% isoflurane in 30% O2/balance N2. Temperature is monitored with a rectal probe and maintained at 36.5° C. with a heat lamp. The right internal jugular vein is cannulated with silicone catheter. […] Intubated animals are then placed prone on a molded acrylic cast (FIG. 6A). […] The scalp is incised and the skull exposed. A concave 3 mm metallic disc is secured to the skull surface (with the concave surface in juxtaposition to the skull) by an adhesive. […] The disc is placed directly midline just caudal to bregma (FIG. 6B). […] The mice are positioned in a stereotactic frame. Although the stereotactactic frame helps to stabilize the animal and exactly calibrate the vertical displacement on impact (3 mm), ear bars are not used due to a much higher rate of skull fracture (or brainstem injury if the head rotates around the axis of the ear bars during impact). The piston is discharged at 6.8±0.2 m/s so as to impact the skull in the acrylic mold to move a maximum of approximately 3 mm (FIG. 6C). Inspired isoflurane is decreased to 0.7% immediately after impact. The scalp was infiltrated with lidocaine and closed with suture. Ophthalmic ointment was applied to the eyes for protection. The incidence of skull fracture is low (approximately 10%), as the metal disk helps to diffuse the impact, and the absence of ear bar fixation allows for displacement of the entire head. Mice were excluded if a depressed skull fracture was observed (incidence of approximately 10%). The animals are allowed to recover spontaneous ventilation then extubated. […] In these mice, arterial blood pressure, blood gas and glucose measurement at baseline, immediately after injury, and 15 minutes after injury are monitored during the recovery period.
Briefly, baseline performance on rotorod is established before the mice are intubated, the skin over the scalp reflected and a controlled cortical impact from a pneumatic impactor given on the midline. The skin is closed with surgical clips and the animals are constantly monitored until awake from anesthesia and then hourly for the next 4 hours. […] Performance on rotorod is tested at 24 hours post impaction and then every day for 5 days and data is presented as described. Groups of 12 mice are used for each compound at 0.5×MTD. […] Novel peptides and non-peptide analogs are also given by tail vein injection.
Daily Rotarod (RR) testing was used to assess short term motor and cerebellar deficit following head injury (Hamm et al., 1994). Mice were held by their tails and placed on the RR facing the wall by using gentle swinging motion while running in a constant speed mode.

[5] = system: RAW 264.7 macrophages; experiment: NO production and iNOS mRNA in C. rodentium-stimulated macrophages; format: cell-based, mouse
From the text: RAW 264.7 cells were stimulated with French-pressed lysates of C. rodentium at a multiplicity of infection of 100. […] B, RT-PCR for iNOS.
We used bacterial lysates to more closely mimic the bacterial products to which lamina propria macrophages are likely to be exposed.

[6] = system: BV2 microglial cells
Description: For suppression of inflammation profiling, each peptide analog was tested at a final concentration of 0.1, […], 1, 3, 5, 10 and 25 μM in an LPS induced BV2 microglial cell release of NO and/or TNFα. […] The modification was a biotin label on the apoE peptide (biotin-[…]-amide) which allows detection with ^125I-streptavidin (ISA, Amersham).
In overview, BV-2 cells are plated in 96 well plates in complete media and then the media is replaced the next day with serum free media or reduced serum (1%) media. […] Each concentration of peptide (standard initial concentrations are 0.1, 0.5, 1, 3, 10 and 25 μM) is added to at least 6 wells of cells (e.g. 6 wells get 0.1 μM peptide, 6 wells get 0.5 μM peptide, etc.) and data are averaged from all 6 wells. […] (2001). Cell viability is also measured with an MTT assay (Laskowitz et al. 2001).

For “Ac-RQIKIWFQNRRMKWKKLRVRLASHLRKLRKRLL-NH2 (N-terminus and C-terminus assumed) [COG4502]”, the “Inhibition of cytokine production induced by MOG or LPS/IFN-γ” value [1] was “significantly more powerful in inhibiting cytokine production”, the “Production of NO, TNFα and IL-6 at 5 μM” value ([1]; 5 μM, MOG or LPS/IFN-γ) was “inhibited the production of NO, TNFα and IL-6 completely” and the “TNFa and IL6 release from peritoneal macrophages” value ([1]; gamma interferon and LPS, 24 hours) was “dose dependent inhibition of TNFa release and a dose dependent inhibition of IL6 release”. For the same substance, the IC50 [2] was 700 nM, the “Increase in potency relative to COG133” value [2] was 40 fold and the “Suppression of LPS-stimulated nitrite secretion” value [2] was “significantly more potent than COG133”. The “Suppression of NO production at 25 μM” value ([2]; 25 μM) was 100%, the “Increase of efficacy of COG133 when conjugated to penetratin” value ([2]; FIG. 18 vs FIG. 16) was “about 100 fold” and the IC50 ([2]; read-out: Dose for fifty percent suppression of LPS-stimulated nitrite secretion, FIG. 18) was ~30 nM. The IC50 ([2]; read-out: IC50 TNFα, in vitro) was 1100 nM, the “Concentration at which cell toxicity was noted” value [3] was 10 µM and the “Concentration range where toxicity did not occur” value [3] was 0.1 to 5 µM. The “Rotorod performance, conjugates given at varying times following TBI” value ([4]; FIG. 20: 90 minutes following TBI) was “can increase the therapeutic window of COG133”, the “In vivo Therapeutic window time expanded?” value ([4]; mouse, in vivo) was “Yes; tested at 4 X” and the “NO production (nitrite levels) in macrophage supernatants” value ([5]; C. rodentium lysates, COG1410 2 μM, COG4502 0.1-5 μM) was “inhibition of NO production”. The “iNOS mRNA expression” value ([5]; RT-PCR) was “significant, concentration-dependent inhibition of iNOS mRNA expression”, the “Suppression of NO and/or TNFα release from LPS treated BV2 cells” value [6] was “much better than the COG133 parent” and the IC50 ([6]; 40 h) was ~10 nM.
